Assay results taken from patent JP2016013988A, “エステル化合物” (Mitsubishi Gas Chemical Co Inc, priority 2014, dated 2016).

experiment: APHA (colour number) of the purified diester; format: physicochemical; conditions: after KOH/water washing, removal of acid under reduced pressure and activated carbon treatment

| APHA | SMILES |
| --- | --- |
| 27 | CCCC(C)(COCC(C)(C)COC(=O)C(C)(C)C)COC(=O)C(C)(C)C (stereo not drawn) [実施例2, ジピバリン酸 4−オキサ−2−プロピル−2,6,6−トリメチルヘプタン−1,7−ジイル] |
| 28 | CCCCC(CC)(COCC(C)(C)COC(=O)C(C)(C)C)COC(=O)C(C)(C)C (stereo not drawn) [実施例1, ジピバリン酸 4−オキサ−2−ブチル−2−エチル−6,6−ジメチルヘプタン−1,7−ジイル] |
| 22 | CCCCC(CC)C(=O)OCC(C)(C)COCC(C)(CCC)COC(=O)C(CC)CCCC (stereo not drawn) [実施例4, ビス(2−エチルへキサン酸) 4−オキサ−2−プロピル−2,6,6−トリメチルヘプタン−1,7−ジイル] |
